# Source: patent publication EP0069448A1, “Fungicidal amide derivatives” (IMPERIAL CHEMICAL INDUSTRIES PLC, priority 1981, dated 1983)
# Legend:
# Assay type in all cases: in vivo
# [1] = system: Candida albicans and Trichophyton mentagrophytes var. quinkeanum; assay: Oral antifungal test in oestradiol-treated female mice inoculated vaginally and on the back; settings: 168 h, oral dosing twice on day 0 and once daily on days 1-4, skin lesions scored and vaginal samples cultured on day 7, read-out: minimum effective dose (MED)
# Method: The following Monday (day 0) they are clipped on the back and then dosed orally with test compounds. They are then inoculated with Candida albicans in the vagina and Trichophyton mentagrophytes var. quinkeanum on the back, and then given a second dose of the same compound. Dosing is repeated once daily on days 1-4. On day 7 skin lesions are scored visually and vaginal samples taken for culture on agar. Groups of 5 mice are used and compounds are dosed initially at a level of 250mg./kg. The dose is then reduced sequentially until a minimum effective dose (MED) is found. The MED for 2,2-bis(4-chlorophenyl)-3-(1,2,4-triazol-1-yl)propionamide in this test was 5mg. per kg.
# [2] = system: VENTURIA INAEQUALIS (APPLE); assay: Foliar fungal disease test on plants (spray and root drench); settings: 100 ppm active ingredient; Venturia inaequalis named as an exception to the combined spray and soil application; applied one or two days before inoculation
# Method: (§1) The compound of Example 1 was tested against a variety of foliar fungal diseases of plants. The technique employed was as follows:- The plants were grown in John Innes Potting Compost (No. 1 or 2) in 4 cm diameter minipots. A layer of fine sand was placed at the bottom of the pots containing the dicotyledonous plants to facilitate uptake of test compound by the roots. The test compound was formulated either by bead milling with aqueous Dispersol T or as a solution of acetone or acetone/ethanol which was diluted to the required concentration immediately before use. For the foliage diseases, suspensions (100 ppm active ingredient) were sprayed on to the […]. Exceptions to this were the tests on Botrytis cinerea, Plasmopara viticola and venturia inaequalis. The sprays were applied to maximum retention and the root drenches to a final concentration equivalent to approximately 40 ppm a.i./dry soil. Tween 20, to give a final concentration of 0.05%, was added when the sprays were applied to cereals. For most of the tests the compound was applied to the soil (roots) and the foliage (by spraying) one or two days before the plant was inoculated with the diseases. An exception was the test on Erysiphe graminis in which the plants were inoculated 24 hours before treatment. After inoculation, the plants were put into an appropriate environment to allow infection to take place and The disease control was recorded by the following grading:- [table]
# [3] = system: PUCCINIA RECONDITA (WHEAT); assay: as above; settings: 100 ppm active ingredient spray, root drench approximately 40 ppm a.i./dry soil; applied one or two days before inoculation
# Method: as §1
# [4] = system: CERCOSPORA ARACHIDICOLA (PEANUT); assay: as above; settings: 100 ppm active ingredient spray, root drench approximately 40 ppm a.i./dry soil; applied one or two days before inoculation
# Method: as §1
# [5] = system: ERYSIPHE GRAMINIS (BARLEY); assay: as above; settings: 100 ppm active ingredient spray, root drench approximately 40 ppm a.i./dry soil; plants inoculated 24 hours before treatment
# Method: as §1
smiles,measurement,setting,value
"NC(=O)C(Cn1cncn1)(c1ccc(Cl)cc1)c1ccc(Cl)cc1 [Example 1, 2,2-bis(4-chlorophenyl)-3-(1,2,4-triazol-1-yl)propionamide]",minimal effective dose,[1],5 mg/kg
same,"disease control grading, VENTURIA INAEQUALIS (APPLE)",[2],3
same,"disease control grading, PUCCINIA RECONDITA (WHEAT)",[3],1
same,"disease control grading, CERCOSPORA ARACHIDICOLA (PEANUT)",[4],2
same,"disease control grading, ERYSIPHE GRAMINIS (BARLEY)",[5],4
